Key:
[1] = tested on: Duroc-Yorkshire-Landrace crossbred lean pigs; experiment: Application effect in pig feed (14 days feeding trial); assay type: in vivo; conditions: for Average daily weight gain / Average weight gain / Feed conversion efficiency / Consumption: pigs; for Consumption: 20 pigs
Text: 120 67-day-aged, Duroc-Yorkshire-Landrace crossbred lean pigs similar in weight were randomly divided into six groups, 20 pigs in each group.

[2] = Thermo stability test of esters and/or salts of hexahydro-β-acid (2% premix, 100° C., HPLC); assay type: physicochemical; conditions: premix with corncob powder, initial content 2.0%, oven 100° C.
Procedure: Samples (the premixes) were placed in crucibles, and then placed in oven at 100° C. for different durations. Then 1.0 g of each of the samples (three duplicate samples from each sample) and 50 ml of ethanol were added into a conical flask, followed by the addition of 100 μL of concentrated hydrochloric acid. The mixture was then subjected to sonication for 5 minutes, and then filtrated. The filtrate was transferred into a 50 ml volumetric flask, topped up to the final volume with ethanol, and then filtered with a 0.45 μm microporous membrane and subjected to HPLC analysis.

[3] = tested on: fast-grown yellow feather broilers (female); experiment: Application effect in broiler feed (30 days feeding trial); assay type: in vivo; conditions: for Average daily weight gain / Average weight gain / Feed conversion efficiency / Survival rate / Consumption: broilers, 30 days; for Consumption: 100 broilers per group
Text: 500 1-day-aged, healthy, fast-grown yellow feather broilers (female) in the same growing state and similar in weight were randomly divided into five groups according to table 2, 100 broilers in each group. Broilers of each group were fed with different dosages of mono decanoate ester of hexahydro-β-acid or hexahydro-β-acid.

[4] = Group 3, 5 mg/kg mixed with feed
[5] = Group 4, 25 mg/kg mixed with feed
[6] = Group 5, 5 mg/kg mixed with feed
[7] = Group 6, 25 mg/kg mixed with feed

Substance: cetylate ester of hexahydro-β-acid
- feed conversion efficiency of the pigs ([1]; in words): significantly improved
- weight gain of the pigs ([1]; in words): significantly improved
- Average daily weight gain [1, 4]: 0.512 kg/day
- Average weight gain [1, 4]: 7.18 kg
- Feed conversion efficiency [1, 4]: 2.078
- Consumption [1, 4]: 298.4 kg
- Average daily weight gain [1, 5]: 0.570 kg/day
- Average weight gain [1, 5]: 7.985 kg
- Feed conversion efficiency [1, 5]: 1.706
- Consumption [1, 5]: 272.5 kg
- Average daily weight gain [1, 6]: 0.508 kg/day
- Average weight gain [1, 6]: 7.11 kg
- Feed conversion efficiency [1, 6]: 1.949
- Consumption [1, 6]: 277.2 kg
- Average daily weight gain [1, 7]: 0.580 kg/day
- Average weight gain [1, 7]: 8.12 kg
- Feed conversion efficiency [1, 7]: 1.690
- Consumption [1, 7]: 274.5 kg
- Content when being heated at 100° C. for 20 h [2]: 1.98%
- Content when being heated at 100° C. for 44 h [2]: 1.93%

Substance: mono decanoate ester of hexahydro-β-acid
- Content when being heated at 100° C. for 20 h [2]: 1.93%
- Content when being heated at 100° C. for 44 h [2]: 1.82%
- feed conversion efficiency of the broilers ([3]; 30 days test period, in words): significantly improved
- weight gain of the broilers ([3]; 30 days test period, in words): significantly improved
- Average daily weight gain ([3]; 2 ppm mixed with feed): 25.6 g
- Average weight gain ([3]; 2 ppm mixed with feed): 768 g
- Feed conversion efficiency ([3]; 2 ppm mixed with feed): 1.926
- Survival rate ([3]; 2 ppm mixed with feed): 100%
- Consumption ([3]; 2 ppm mixed with feed): 147.94 kg
- Average daily weight gain ([3]; 20 ppm mixed with feed): 26.57 g
- Average weight gain ([3]; 20 ppm mixed with feed): 797 g
- Feed conversion efficiency ([3]; 20 ppm mixed with feed): 1.837
- Survival rate ([3]; 20 ppm mixed with feed): 100%
- Consumption ([3]; 20 ppm mixed with feed): 146.42 kg
- improvement of the productivity of the broilers ([3]; compared with hexahydro-β-acid in the same dosage): more significant than that of the broilers fed with hexahydro-β-acid in the same dosage

Substance: magnesium salt of acetate ester of hexahydro-β-acid
- Content when being heated at 100° C. for 20 h [2]: 1.42%
- Content when being heated at 100° C. for 44 h [2]: 0.7%

Substance: calcium salt of hexahydro-β-acid
- Content when being heated at 100° C. for 20 h [2]: 0.35%
- Content when being heated at 100° C. for 44 h [2]: 0.09%

Substance: ferrous salt of hexahydro-β-acid
- Content when being heated at 100° C. for 20 h [2]: 0.14%
- Content when being heated at 100° C. for 44 h [2]: 0.05%

Substance: mono acetate ester of hexahydro-β-acid
- Content when being heated at 100° C. for 20 h [2]: 1.52%
- Content when being heated at 100° C. for 44 h [2]: 1.11%

Substance: zinc salt of acetate ester of hexahydro-β-acid
- Content when being heated at 100° C. for 20 h [2]: 1.64%
- Content when being heated at 100° C. for 44 h [2]: 0.70%

Substance: hexahydro-β-acid [reference compound]
- Content when being heated at 100° C. for 20 h [2]: 0.06%
- Content when being heated at 100° C. for 44 h [2]: 0%
- Average daily weight gain ([3]; 2 ppm mixed with feed): 24.83 g
- Average weight gain ([3]; 2 ppm mixed with feed): 745 g
- Feed conversion efficiency ([3]; 2 ppm mixed with feed): 1.983
- Survival rate ([3]; 2 ppm mixed with feed): 100%
- Consumption ([3]; 2 ppm mixed with feed): 147.76 kg
- Average daily weight gain ([3]; 20 ppm mixed with feed): 25.26 g
- Average weight gain ([3]; 20 ppm mixed with feed): 758 g
- Feed conversion efficiency ([3]; 20 ppm mixed with feed): 1.968
- Survival rate ([3]; 20 ppm mixed with feed): 100%
- Consumption ([3]; 20 ppm mixed with feed): 149.18 kg

Substance: calcium salt of acetate ester of hexahydro-β-acid
- Content when being heated at 100° C. for 20 h [2]: 1.21%
- Content when being heated at 100° C. for 44 h [2]: 0.31%

Substance: copper salt of acetate ester of hexahydro-β-acid
- Content when being heated at 100° C. for 20 h [2]: 1.50%
- Content when being heated at 100° C. for 44 h [2]: 1.28%

Substance: magnesium salt of hexahydro-β-acid
- Content when being heated at 100° C. for 20 h [2]: 1.49%
- Content when being heated at 100° C. for 44 h [2]: 0.91%

Substance: zinc salt of hexahydro-β-acid
- Content when being heated at 100° C. for 20 h [2]: 0.95%
- Content when being heated at 100° C. for 44 h [2]: 0.52%

Substance: Cobalt Salt of Acetate Ester of hexahydro-β-acid
- Content when being heated at 100° C. for 20 h [2]: 0.17%
- Content when being heated at 100° C. for 44 h [2]: 0.12%

Substance: manganese salt of acetate ester of hexahydro-β-acid
- Content when being heated at 100° C. for 20 h [2]: 0%
- Content when being heated at 100° C. for 44 h [2]: 0%

Substance: laurate ester of hexahydro-β-acid
- Content when being heated at 100° C. for 20 h [2]: 2.0%
- Content when being heated at 100° C. for 44 h [2]: 1.96%

Substance: Ferrous Salt of Acetate Ester of hexahydro-β-acid
- Content when being heated at 100° C. for 20 h [2]: 1.69%
- Content when being heated at 100° C. for 44 h [2]: 1.63%

Reference: patent publication US20160368853A1, “MONOESTERS, INNER COMPLEX SALTS OR MONOESTER SALTS OF HEXAHYDRO-BETA-ACID AND APPLICATION THEREOF AS ANIMAL FEED ADDITIVES” (GUANGZHOU INSIGHTER BIOTECHNOLOGY CO., LTD., priority 2014, published 2016)
